Test results published in article PMC8224802 (Pharmaceutics, 2021).
Like-named read-outs stand apart in the source and are kept apart here.

Columns and labels:
[1] = system: microsomal metabolism of RPG in RLM; test: In vitro inhibition of RPG metabolism by QCT in RLM; assay type: in vitro ADME, rat; conditions: RLM
Experimental: (§1) The intrinsic metabolic clearance (CLint) was calculated as Vmax/Km. […] The parameter α is indicative of the inhibition type. The mixed model is a general equation that includes competitive, uncompetitive, and noncompetitive inhibition as special cases. When α = 1, the mixed model is identical to a noncompetitive inhibition. When α is very large (α→∞) or very small (α→0), the mixed model becomes identical to competitive inhibition or uncompetitive inhibition, respectively.

[2] = In vivo oral pharmacokinetic study of RPG without or with QCT in rats; parameters: species or system Sprague-Dawley rats; conditions: for bioavailability: read-out: F (absolute oral bioavailability)
Experimental: (§2) Rats were anesthetized via intramuscular injection of 10 mg/kg zoletil. The femoral vein and artery of the rats were cannulated using a polyethylene tube (BD Medical, Franklin Lakes, NJ, USA). […] The vehicle solutions for the intravenous and oral doses were composed of PEG 400 and aqueous 0.3% CMC solution (50:50 v/v).
For comparison, the extent of absolute oral bioavailability (F; expressed as percent of dose administered) was calculated by dividing the dose-normalized AUC after oral administration by the dose-normalized AUC after intravenous injection. The peak plasma concentration (Cmax) and time to reach Cmax (Tmax) were obtained directly from the measured experimental data.

[3] = Plasma protein binding by rapid equilibrium dialysis (human plasma); assay type: in vitro ADME
Experimental: (§3) A 200 μL spiked samples and 400 μL PBS were placed into the “sample” and “buffer” chambers of the RED device, respectively. After 4-h incubation to equilibrate between the buffer and plasma compartments, the RED plate was sampled from both compartments. The samples were matrix-matched for analysis by addition of either diluted plasma or buffer; (a) blank diluted plasma added to the buffer samples and (b) blank buffer added to the diluted plasma sample, at a ratio of 50:50 v/v. The unbound fractions in microsomes and diluted plasma were determined by dividing the analyte/IS peak area ratios of the (a) sample by those of the (b) sample. The unbound fraction in diluted plasma (fu,d) was converted to the unbound fraction in undiluted plasma (fu) using a Kalvass equation as below (DF: dilution factor). (1) fu=1/DF/[(1/fu,d)−1]+1/DF

[4] = In vitro microsomal metabolism of RPG (disappearance) in RLM; assay type: in vitro ADME, rat; conditions: RLM 0.3 mg/mL, 1–500 μM RPG, Michaelis–Menten fit
Experimental: At 0, 30, and 60 min after starting the metabolic reaction, a 50 μL aliquot of the incubation mixture was sampled and transferred to a clean 1.5-mL microcentrifuge tube containing 150 μL of ice-cold acetonitrile to terminate the metabolic reaction.
The intrinsic metabolic clearance (CLint) was calculated as Vmax/Km. […] Max and Min are the initial and final Y values, respectively, and the power P represents the Hill coefficient. […] Vmax and Km are the same as those defined in Equation (2). The parameter α is indicative of the inhibition type. The mixed model is a general equation that includes competitive, uncompetitive, and noncompetitive inhibition as special cases. When α = 1, the mixed model is identical to a noncompetitive inhibition. When α is very large (α→∞) or very small (α→0), the mixed model becomes identical to competitive inhibition or uncompetitive inhibition, respectively.

[5] = Plasma protein binding by rapid equilibrium dialysis (rat plasma); assay type: in vitro ADME, Sprague-Dawley rat
Experimental: as §3

[6] = humans; cited from earlier work
[7] = system: microsomal metabolism of RPG in HLM; test: In vitro inhibition of RPG metabolism by QCT in HLM; assay type: in vitro ADME, human; conditions: HLM
Experimental: as §1

[8] = Microsomal protein binding by rapid equilibrium dialysis (HLM)
Experimental: as §3

[9] = Blood-to-plasma concentration ratio (human whole blood); assay type: in vitro ADME; conditions: RPG and QCT 5 μM each
Experimental: A plasma sample was obtained by centrifugation of the blood sample at 2000× g for 5 min.

[10] = In vivo intravenous pharmacokinetic study of RPG without or with QCT in rats; parameters: species or system Sprague-Dawley rats; conditions: for AUC / clearance / half-life / Vd: Sprague-Dawley, rat, plasma, 0.4 mg/kg; for Vd: read-out: Vss
Experimental: as §2, with “v/v). Approximately 300 μL of blood was collected via the femoral artery at 0, 1, 5, 15, 30, 60, 90, 120, 180, and 240 min after intravenous injection and at 10, 20, 30, 45, 60, 90, 120, 180, and 240 min after oral administration.” for “v/v).”
Non-compartmental analysis (WinNonlin, version 3.1, NCA200 and 201; Certara, Inc., Princeton, NJ, USA) was conducted to estimate the following pharmacokinetic parameters: total area under the plasma concentration–time curve from time zero to time infinity (AUC); total body clearance (CL, calculated as dose/AUC); terminal half-life (t1/2); and apparent volume of distribution at steady state (Vss). For comparison, the extent of absolute oral bioavailability (F; expressed as percent of dose administered) was calculated by dividing the dose-normalized AUC after oral administration by the dose-normalized AUC after intravenous injection. The peak plasma concentration (Cmax) and time to reach Cmax (Tmax) were obtained directly from the measured experimental data.

[11] = Sprague-Dawley, rat, plasma, po, 0.4 mg/kg, rats, RPG 0.4 mg/kg oral with QCT 100 mg/kg oral
[12] = Sprague-Dawley, rat, plasma, po, 0.4 mg/kg, rats, RPG 0.4 mg/kg oral, RPG alone
[13] = rats, RPG 0.4 mg/kg oral with QCT 100 mg/kg oral
[14] = rats, RPG 0.4 mg/kg oral, QCT 100 mg/kg oral
[15] = rats, RPG 0.4 mg/kg oral, RPG alone
[16] = RPG 0.4 mg/kg iv, QCT 25 mg/kg iv
[17] = iv, RPG 0.4 mg/kg iv with QCT 25 mg/kg iv
[18] = iv, RPG 0.4 mg/kg iv, RPG alone

Structure (SMILES): CCOc1cc(CC(=O)N[C@@H](CC(C)C)c2ccccc2N2CCCCC2)ccc1C(=O)O [RPG, Repaglinide]
- Km of RPG metabolism in the Ki estimation study ([1]; QCT 0 μM): 53 µM
- Km of RPG metabolism in the Ki estimation study ([1]; QCT 200 μM): 81 µM
- AUC [2, 11]: 803 ng·h/mL
- Cmax [2, 11]: 238 ± 76 ng/mL
- half-life [2, 11]: 148 ± 49 min
- bioavailability [2, 11]: 95.1%
- Cmax [2, 12]: 129 ± 33 ng/mL
- half-life [2, 12]: 139 ± 66 min
- bioavailability [2, 12]: 50.7%
- Tmax ([2]; Sprague-Dawley, rat, plasma, po, 0.4 mg/kg, read-out: Tmax, median (range) (converted)): 45 min
- AeGI [2, 13]: 2.90 ± 2.50 % of dose
- AeU [2, 13]: 0.371 ± 0.336 % of dose
- Tmax, median (range) [2, 13]: 45 (30–60) min
- AUC of RPG higher with concurrent QCT than in control rats [2, 14]: 87.6%
- Cmax of RPG higher with concurrent QCT than in control rats [2, 14]: 84.2%
- AeGI [2, 15]: 3.41 ± 1.65 % of dose
- AeU [2, 15]: 0.458 ± 0.441 % of dose
- Increase of AUC of orally administered RPG by oral QCT ([2]; rats, RPG oral with QCT 100 mg/kg oral vs RPG alone): 1.88 fold
- Intestinal availability (FG) ([2]; rats, from F = Fabs × FG × FH with Fabs assumed 1): 0.572–0.620
- Fecal excretion of oral RPG ([2]; rats, oral): 2.21–5.78 % of the dose administered
- Change of fuP of RPG by the presence of QCT ([3]; human plasma, RPG and QCT 5 μM each): not significantly altered
- fraction unbound at 4 h, 5 μM ([3]; human, plasma (20-fold diluted), read-out: fuP (unbound fraction in plasma)): 0.0533 ± 0.006
- Vmax, metabolism of RPG [4]: 3070 ± 960 pmol/min/mg protein
- fraction unbound at 4 h, 5 μM ([5]; Sprague-Dawley, rat, plasma (20-fold diluted), read-out: fuP (unbound fraction in plasma)): 0.0761 ± 0.0094
- Change of fuP of RPG by the presence of QCT ([5]; rat plasma, RPG and QCT 5 μM each): not significantly altered
- F of RPG [6]: approximately 62.5%
- Km of RPG metabolism in the Ki estimation study ([7]; QCT 0 μM): 23 µM
- Km of RPG metabolism in the Ki estimation study ([7]; QCT 200 μM): 111 µM
- Change of fuMIC of RPG by the presence of QCT ([8]; HLM, RPG and QCT 5 μM each): not significantly altered
- fraction unbound at 4 h, 5 μM ([8]; human, liver microsomes): 0.62 ± 0.152
- Change of RB of RPG by the presence of QCT [9]: not significantly altered
- Hepatic availability (FH) ([10]; 1 − EH): 0.818–0.886
- AeU ([10]; RPG 0.4 mg/kg iv with QCT 25 mg/kg iv): 1.32 ± 0.88 % of dose
- AUC of RPG higher with concurrent QCT than in control rats [10, 16]: 83.4%
- CL of RPG lower with concurrent QCT than in control rats [10, 16]: 44.9%
- Difference in Vss of RPG between QCT and control groups [10, 16]: no significant differences
- t1/2 of RPG higher with concurrent QCT than in control rats [10, 16]: 40.8%
- AeU ([10]; RPG 0.4 mg/kg iv, RPG alone): 1.60 ± 0.77 % of dose
- Increase of AUC of intravenous RPG after concurrent QCT ([10]; RPG iv with QCT iv vs RPG alone): 1.83 fold
- AUC [10, 17]: 1550 ng·h/mL
- clearance [10, 17]: 4.36 ± 0.54 mL/min/kg
- half-life [10, 17]: 57.4 ± 10.6 min
- Vd [10, 17]: 0.269 ± 0.025 L/kg
- AUC [10, 18]: 845 ng·h/mL
- clearance [10, 18]: 7.92 ± 0.47 mL/min/kg
- half-life [10, 18]: 40.8 ± 4.2 min
- Vd [10, 18]: 0.293 ± 0.018 L/kg
- Urinary and fecal excretion of RPG administered intravenously ([10]; iv): ≤ 1.60 % of the dose
- Hepatic clearance CLH (blood clearance, CL/RB) ([10]; iv RPG alone, assuming exclusive hepatic metabolism): 9.11 mL/min/kg
